Read-outs that look alike come from different tables or passages of the source.
Key:
[1] = Stability study: storage in climatic chambers, solid form checked by XRPD and DSC; format: physicochemical; conditions: for solid form stability after storage (XRPD) / solid form stability after storage (XRPD, DSC): 40° C. and 80% relative humidity; for solid form stability after storage (XRPD): 6 months
Description: The XRPD analysis was performed using a Siemens model D-5000 X-ray powder diffractometer equipped with a copper anode. The radiation used is CuKα with a wavelength of 1.541838 Å. Scanning parameters: 4-50 degrees 2θ, continuous scan, ratio: 1.2 degrees/minute.
The differential scanning calorimetry (DSC) analysis was performed in a Mettler Toledo 822e apparatus with STARe SW15.00 software. Parameters: range of heating from 25 to 300° C. with a ramp of 20° C./min and a N2 flow of 50 mL/min. The measurement was taken with a closed perforated capsule.
This is proven in the stability results of the product in amorphous form obtained according to assays 1.5 (lyophilization in acetonitrile) and 1.6 (lyophilization in water) indicated in Table 1. To determine said stability, the product was stored in climatic chambers under two different conditions: a) temperature of 40° C. and 80% relative humidity and b) temperature of 25° C. and 60% relative humidity.

[2] = free base, cited from earlier work
[3] = lyophilized alone, without excipients; cited from earlier work

COC(=O)CC[C@@H]1N=C(c2ccccn2)c2cc(Br)ccc2-n2c(C)cnc21.O=S(=O)(O)c1ccccc1 [Assay 1.6, remimazolam besylate]
solid form stability after storage (XRPD) [1]: still maintains the initial characteristics in terms of the amorphous form | solid form stability after storage (XRPD, DSC) ([1]; 15 days): still maintains the initial characteristics in terms of the amorphous form

COC(=O)CC[C@@H]1N=C(c2ccccn2)c2cc(Br)ccc2-n2c(C)cnc21.O=S(=O)(O)c1ccccc1 [Comparative Example 3, remimazolam besylate]
solid form after storage (XRPD) ([1]; 4° C., one month): crystalline form 2 | solid form after storage (XRPD, DSC) ([1]; 40° C. and 80% RH, one week): crystalline form 2

COC(=O)CC[C@@H]1N=C(c2ccccn2)c2cc(Br)ccc2-n2c(C)cnc21 [remimazolam, methyl 3-{(4S)-8-bromo-1-methyl-6-(pyridin-2-yl)-4H-imidazo[1,2-a][1,4]benzodiazepin-4-yl}propanoate]
storage stability ([2]; 40° C. and 75% relative humidity, open vial): behaves like a deliquescent solid | storage stability ([2]; 60° C. and ambient humidity, closed vial): behaves like a deliquescent solid | storage stability ([2]; stored at 5° C.): stable

COC(=O)CC[C@@H]1N=C(c2ccccn2)c2cc(Br)ccc2-n2c(C)cnc21.O=S(=O)(O)c1ccccc1 [remimazolam besylate]
stability after lyophilization [3]: did not result in satisfactory stability

COC(=O)CC[C@@H]1N=C(c2ccccn2)c2cc(Br)ccc2-n2c(C)cnc21.O=S(=O)(O)c1ccccc1 [Assay 1.5, remimazolam besylate]
solid form stability after storage (XRPD) [1]: still maintains the initial characteristics in terms of the amorphous form | solid form stability after storage (XRPD, DSC) ([1]; 15 days): still maintains the initial characteristics in terms of the amorphous form | solid form stability after storage (XRPD, DSC) ([1]; 30 days): still maintains the initial characteristics in terms of the amorphous form

Reference: patent US12331053B2, “Method for obtaining amorphous remimazolam besylate” (MOEHS IBERICA, S.L., priority 2019, dated 2025)
